US10227663B2, “Non-replicative transduction particles and transduction particle-based reporter systems” (priority 2013, dated 2019)
In brackets after ≈: the same amount, converted by molar mass. Read-outs that look alike come from different tables or passages of the source.

Experiments:
[1] = system: cefoxitin resistant S. aureus (MRSA strains); test: MIC determination via plating on TSA plates containing cefoxitin; type: cell-based; details: Staphylococcus aureus
Procedure: (§1) Overnight Culture: For each MRSA strain ([…] and S7) and a MSSA negative control strain (MSSA121), 2 mL of TSB were inoculated with a colony of the strain previously grown on TSA plates. Overnight MRSA cultures included 5 ug/mL cefoxitin. All samples were incubated overnight at 37° C. in a shaking incubator.
(§2) Day Culture: 20 uL of each of the overnight cultures were transferred into a new culture tube containing 2 mL of Growth Media Reagent. The inoculums were then incubated at 37 C with shaking for approximately 1 hr 45 min, until the OD(600 nm) reached 0.1.
a) Each of the day cultures was streaked onto TSA plates containing cefoxitin at 4, 8, 16, 32, 64, and 128 ug/mL.
b) Plates were incubated for 18 hours at 37 C to determine growth.

[2] = system: cefoxitin resistant S. aureus (MRSA strains); test: NRTP-based cefoxitin susceptibility assay (luminescence); type: cell-based, Staphylococcus aureus
Procedure: as §1, §2
a) Wells of a white 96 well assay plate were filled with 100 uL of 2× Transduction Particle Reagent.
b) For each of the day cultures, five wells were then filled with 100 uL of day culture.
c) For each of the day cultures, cefoxitin was added to one well each such that the cefoxitin concentration in the well was at 4, 8, 16, 32, 64, and 128 ug/mL. […]
At the end of 4 hours, the plate was remove from incubator and immediately measured for luminescence on a SpectraMax L that injected 50 μl of the Substrate Reagent and measured luminescence for a period of 1 minute.
The maximum luminescence value after Substrate Reagent addition from each sample was plotted. MSSA sample RLU values were used to determine a Cutoff calculated using the following formula: (Mean MSSA RLU+3*SD MSSA RLU).

In the case of `CO[C@@]1(NC(=O)Cc2cccs2)C(=O)N2C(C(=O)O)=C(COC(N)=O)CS[C@@H]21` [cefoxitin], the MIC ([1]; MRSA / NRS 25, 18 h) was 128 µg/mL (≈ 299 µM), the MIC ([1]; MRSA S7, TSA plates, 18 hours at 37 C, read-out: MIC) was 64 µg/mL (≈ 150 µM) and the “Cefoxitin concentration up to which luminescence was above the MSSA RLU cutoff” value ([2]; MRSA NRS25, 4 hours at 37° C.) was “up to 64 ug/mL”. The “Cefoxitin concentration up to which luminescence was above the MSSA RLU cutoff” value ([2]; MRSA S7, 4 hours at 37° C.) was “up to 32 ug/mL”.
